This is an account of results in ChEMBL document CHEMBL1909046, “DrugMatrix in vitro pharmacology data”.

By IC50 is commonly meant the concentration that gives 50% inhibition. In general, Ki refers to a dissociation constant, usually derived from enzyme kinetics or from competition with a known ligand.

In assay [1] the target is T1, Calcitonin receptor (Homo sapiens, UniProt P30988). Note: in other assays of this panel Not Active means under 50% inhibition at 10 µM.
T1 sequence (P30988 whole entry): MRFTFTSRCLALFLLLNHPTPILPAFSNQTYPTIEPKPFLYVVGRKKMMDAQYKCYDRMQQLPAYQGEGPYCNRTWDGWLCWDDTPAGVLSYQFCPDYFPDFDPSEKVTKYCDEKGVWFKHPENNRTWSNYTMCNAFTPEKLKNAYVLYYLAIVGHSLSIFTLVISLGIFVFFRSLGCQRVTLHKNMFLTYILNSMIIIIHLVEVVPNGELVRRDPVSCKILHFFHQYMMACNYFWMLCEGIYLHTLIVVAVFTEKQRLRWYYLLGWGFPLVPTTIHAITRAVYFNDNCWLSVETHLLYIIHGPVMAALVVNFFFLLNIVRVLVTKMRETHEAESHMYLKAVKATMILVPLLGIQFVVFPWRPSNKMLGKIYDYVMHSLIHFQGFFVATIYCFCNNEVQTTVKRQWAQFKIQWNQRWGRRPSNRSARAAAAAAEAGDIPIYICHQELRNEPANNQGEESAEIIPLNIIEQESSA
In kind it is cell membranes, Membrane. Conditions: t47d.

In assay [2] the target is Sigma non-opioid intracellular receptor 1 (Homo sapiens, UniProt Q99720). The experiment in a line: DRUGMATRIX: Sigma1 radioligand binding (ligand: [3H] Haloperidol). The assay is classed as cell membranes, Jurkat, Membrane. Conditions: Not Active = under 50% inhibition at 10 µM; for Ki: read-out: Ki.
Assay [3] addresses Sodium-dependent dopamine transporter (Homo sapiens, UniProt Q01959). The experiment in a line: DRUGMATRIX: Dopamine Transporter radioligand binding (ligand: [125I] RTI-55). The assay is classed as cell membranes, CHO-K1, Membrane. The conditions noted are these: Not Active = under 50% inhibition at 10 µM; for Ki: read-out: Ki.
Assay [4] has as its target Melanocortin receptor 4 (Homo sapiens, UniProt P32245). The assay is classed as cell membranes, HEK293, Membrane. Note: in other assays of this panel Not Active means under 50% inhibition at 10 µM.
Assay [5] addresses T2, Muscarinic acetylcholine receptor M5 (Homo sapiens, UniProt P08912).
T2 sequence (P08912 whole entry): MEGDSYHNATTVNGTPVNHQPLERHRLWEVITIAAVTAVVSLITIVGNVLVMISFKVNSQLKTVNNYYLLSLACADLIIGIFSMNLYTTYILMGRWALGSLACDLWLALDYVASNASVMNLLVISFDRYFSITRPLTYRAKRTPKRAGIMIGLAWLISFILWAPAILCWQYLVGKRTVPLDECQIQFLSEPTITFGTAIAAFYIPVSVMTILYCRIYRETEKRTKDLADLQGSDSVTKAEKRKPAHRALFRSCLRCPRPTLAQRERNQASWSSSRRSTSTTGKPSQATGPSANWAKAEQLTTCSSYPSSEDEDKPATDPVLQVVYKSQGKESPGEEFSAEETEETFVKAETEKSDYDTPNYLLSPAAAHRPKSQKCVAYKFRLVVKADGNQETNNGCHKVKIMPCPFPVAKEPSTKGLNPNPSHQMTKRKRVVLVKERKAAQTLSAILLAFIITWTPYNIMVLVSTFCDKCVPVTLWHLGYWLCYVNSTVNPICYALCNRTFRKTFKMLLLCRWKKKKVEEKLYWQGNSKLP
In kind it is cell membranes, CHO-K1, Membrane. The conditions noted are these: for Ki: read-out: Ki.

Assay [6] deals with T3, Estrogen receptor (Homo sapiens, UniProt P03372).
T3 sequence (P03372 whole entry): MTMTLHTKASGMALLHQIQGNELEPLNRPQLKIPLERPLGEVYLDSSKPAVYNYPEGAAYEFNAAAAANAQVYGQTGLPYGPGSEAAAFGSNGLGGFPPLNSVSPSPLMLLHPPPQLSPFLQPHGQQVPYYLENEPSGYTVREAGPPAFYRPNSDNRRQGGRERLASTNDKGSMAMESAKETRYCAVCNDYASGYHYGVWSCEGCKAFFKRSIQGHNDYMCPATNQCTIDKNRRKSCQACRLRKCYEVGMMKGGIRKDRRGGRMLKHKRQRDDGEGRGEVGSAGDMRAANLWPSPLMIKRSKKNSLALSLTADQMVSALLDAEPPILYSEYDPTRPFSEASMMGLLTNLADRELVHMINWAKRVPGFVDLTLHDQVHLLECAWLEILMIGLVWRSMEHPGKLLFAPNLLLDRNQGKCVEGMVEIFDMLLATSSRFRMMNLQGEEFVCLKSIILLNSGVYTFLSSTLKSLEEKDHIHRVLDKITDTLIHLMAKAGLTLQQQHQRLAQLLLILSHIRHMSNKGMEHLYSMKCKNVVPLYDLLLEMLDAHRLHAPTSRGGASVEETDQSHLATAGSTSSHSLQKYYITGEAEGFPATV
The conditions noted are these: sf9.

Chain of Sodium-dependent dopamine transporter (Q01959 whole entry): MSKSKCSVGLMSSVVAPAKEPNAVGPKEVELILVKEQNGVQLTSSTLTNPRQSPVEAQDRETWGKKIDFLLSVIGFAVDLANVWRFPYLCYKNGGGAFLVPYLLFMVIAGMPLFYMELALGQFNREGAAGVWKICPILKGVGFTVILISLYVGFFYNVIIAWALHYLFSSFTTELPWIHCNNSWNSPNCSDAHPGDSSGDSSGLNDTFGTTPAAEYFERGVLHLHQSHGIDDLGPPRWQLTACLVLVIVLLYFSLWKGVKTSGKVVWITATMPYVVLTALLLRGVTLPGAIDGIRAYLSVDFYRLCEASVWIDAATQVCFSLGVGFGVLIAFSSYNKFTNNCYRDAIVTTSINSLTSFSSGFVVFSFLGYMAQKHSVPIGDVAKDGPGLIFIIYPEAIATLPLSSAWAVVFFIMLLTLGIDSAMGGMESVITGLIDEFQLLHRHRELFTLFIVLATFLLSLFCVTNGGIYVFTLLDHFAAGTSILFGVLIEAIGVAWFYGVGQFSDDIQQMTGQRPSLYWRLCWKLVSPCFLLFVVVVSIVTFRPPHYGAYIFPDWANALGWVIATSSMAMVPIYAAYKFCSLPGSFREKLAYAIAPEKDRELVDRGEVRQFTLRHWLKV
Chain of Sigma non-opioid intracellular receptor 1 (Q99720 whole entry): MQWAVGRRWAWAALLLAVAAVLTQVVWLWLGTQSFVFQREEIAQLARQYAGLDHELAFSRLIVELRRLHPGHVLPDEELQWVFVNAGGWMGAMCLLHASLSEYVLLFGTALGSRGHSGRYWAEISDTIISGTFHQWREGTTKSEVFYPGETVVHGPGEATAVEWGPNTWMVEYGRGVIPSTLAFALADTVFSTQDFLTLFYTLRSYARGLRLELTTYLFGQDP
Chain of Melanocortin receptor 4 (P32245 whole entry): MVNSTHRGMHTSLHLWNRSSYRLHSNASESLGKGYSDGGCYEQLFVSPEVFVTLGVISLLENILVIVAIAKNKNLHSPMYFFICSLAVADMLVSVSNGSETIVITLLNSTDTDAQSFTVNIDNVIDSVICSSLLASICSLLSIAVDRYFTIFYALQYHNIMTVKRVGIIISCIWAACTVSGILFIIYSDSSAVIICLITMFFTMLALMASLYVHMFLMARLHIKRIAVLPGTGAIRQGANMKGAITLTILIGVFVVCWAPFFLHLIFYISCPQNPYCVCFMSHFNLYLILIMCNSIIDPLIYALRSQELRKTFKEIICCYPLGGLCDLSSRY

As for `Cc1c(C)c2c(c(C)c1O)CCC(C)(COc1ccc(CC3SC(=O)NC3=O)cc1)O2` (centres undefined) [TROGLITAZONE], the IC50 entry in assay [1], in assay [2] (jurkat), in assay [3] (cho-k1), in assay [4] (hek293), in assay [5] (cho-k1) and in assay [6] was “Not Active” in each case.

For the molecule `c1ccc([C@H]2CN3CCSC3=N2)cc1` [LEVAMISOLE], the IC50 result in assay [1], in assay [2] (jurkat), in assay [3] (cho-k1), in assay [4] (hek293), in assay [5] (cho-k1) and in assay [6] was “Not Active” each time.

As for `CC[C@]1(O)C[C@H]2CN(CCc3c([nH]c4ccccc34)[C@@](C(=O)OC)(c3cc4c(cc3OC)N(C=O)[C@H]3[C@@](O)(C(=O)OC)[C@H](OC(C)=O)[C@]5(CC)C=CCN6CC[C@]43[C@@H]65)C2)C1` [VINCRISTINE], the IC50 entry in assay [1], in assay [2] (jurkat), in assay [3] (cho-k1), in assay [4] (hek293), in assay [5] (cho-k1) and in assay [6] was “Not Active” in each case.

`O=c1ncn2nc(Sc3ccc(F)cc3F)ccc2c1-c1c(Cl)cccc1Cl` [NEFLAMAPIMOD]: the concentration for half-maximal inhibition (IC50) entry in assay [1] was “Not Active”; in assay [2] (jurkat), “Not Active”; in assay [3] (read-out: IC50) it was 8100 nM; in assay [4] (hek293) it was “Not Active”; in assay [5] (cho-k1), “Not Active”; in assay [6], “Not Active”. In assay [3], the Ki amounted to 6430 nM.

`NS(=O)(=O)c1cc2c(cc1Cl)NC(C(Cl)Cl)NS2(=O)=O` (centres undefined) [TRICHLORMETHIAZIDE]: the concentration for half-maximal inhibition (IC50) result in assay [1], in assay [2] (jurkat), in assay [3] (cho-k1), in assay [4] (hek293) and in assay [5] (cho-k1) was “Not Active” each time.

For `CCCOc1ccccc1-c1nc2nn[nH]c2c(=O)[nH]1` [ZAPRINAST], the IC50 entry in assay [1], in assay [2] (jurkat), in assay [3] (cho-k1), in assay [4] (hek293), in assay [5] (cho-k1) and in assay [6] was “Not Active” throughout.

In the case of `N#CC(C#N)=Cc1ccc(O)c(O)c1` [TYRPHOSTIN 23], the IC50 entry in assay [1], in assay [2] (jurkat), in assay [3] (cho-k1), in assay [4] (hek293), in assay [5] (cho-k1) and in assay [6] was “Not Active” throughout.

For the molecule `C=CCC1(C(C)CCC)C(=O)NC(=O)NC1=O` (centres undefined) [SECOBARBITAL], the IC50 result in assay [1], in assay [2] (jurkat), in assay [3] (cho-k1), in assay [4] (hek293), in assay [5] (cho-k1) and in assay [6] was “Not Active” in each case.

In the case of `OCCN(CCO)c1nc(N2CCCCC2)c2nc(N(CCO)CCO)nc(N3CCCCC3)c2n1` [DIPYRIDAMOLE], the half-inhibitory concentration (IC50) result in assay [1], in assay [2] (jurkat), in assay [3] (cho-k1), in assay [4] (hek293), in assay [5] (cho-k1) and in assay [6] was “Not Active” in each case.

For `Nc1c2c(nc3ccccc13)CCCC2` [TACRINE], the IC50 entry in assay [1], in assay [2] (jurkat), in assay [3] (cho-k1), in assay [4] (hek293), in assay [5] (cho-k1) and in assay [6] was “Not Active” throughout.

Take `Cn1ccnc1S` [METHIMAZOLE]: the concentration for half-maximal inhibition (IC50) result in assay [1], in assay [2] (jurkat), in assay [3] (cho-k1), in assay [4] (hek293), in assay [5] (cho-k1) and in assay [6] was “Not Active” in each case.

For `N[C@@H]1[C@H]2CN(c3nc4c(cc3F)c(=O)c(C(=O)O)cn4-c3ccc(F)cc3F)C[C@@H]12` [TROVAFLOXACIN], the IC50 result in assay [1] was “Not Active”; in assay [2] (jurkat), “Not Active”; in assay [3] (read-out: IC50), 62200 nM; in assay [4] (hek293), “Not Active”; in assay [5] (cho-k1), “Not Active”; in assay [6], “Not Active”. Moreover, the Ki in assay [3] was found to be 49400 nM.

`CC1(C)O[C@@H]2C[C@H]3[C@@H]4CCC5=CC(=O)C=C[C@]5(C)[C@@]4(F)[C@@H](O)C[C@]3(C)[C@]2(C(=O)CO)O1` [TRIAMCINOLONE ACETONIDE]: the half-maximal inhibitory concentration (IC50) result in assay [1], in assay [2] (jurkat), in assay [3] (cho-k1), in assay [4] (hek293) and in assay [5] (cho-k1) was “Not Active” in each case.

For `NC[C@H]1CC[C@H](C(=O)O)CC1` [TRANEXAMIC ACID], the IC50 entry in assay [1], in assay [2] (jurkat), in assay [3] (cho-k1), in assay [4] (hek293), in assay [5] (cho-k1) and in assay [6] was “Not Active” each time.

On to `CC/C(=C(\c1ccccc1)c1ccc(OCCN(C)C)cc1)c1ccccc1` [TAMOXIFEN], for which the half-maximal inhibitory concentration (IC50) entry was “Not Active” in assay [1], 1840 nM in assay [3] (read-out: IC50), 30500 nM in assay [4] (read-out: IC50) and 2580 nM in assay [5] (read-out: IC50). In addition, the Ki came out at 1460 nM in assay [3], 29300 nM in assay [4] (read-out: Ki) and 1860 nM in assay [5].

As to `N[C@@H](Cc1ccc(N(CCCl)CCCl)cc1)C(=O)O`, the IC50 result in assay [1], in assay [2] (jurkat), in assay [3] (cho-k1), in assay [4] (hek293) and in assay [5] (cho-k1) was “Not Active” in each case.

Consider `CO[C@H]1/C=C/O[C@@]2(C)Oc3c(C)c(O)c4c(O)c(c(/C=N/N5CCN(C)CC5)c(O)c4c3C2=O)NC(=O)/C(C)=C\C=C\[C@H](C)[C@H](O)[C@@H](C)[C@@H](O)[C@@H](C)[C@H](OC(C)=O)[C@@H]1C` [RIFAMPIN], for which the concentration for half-maximal inhibition (IC50) entry in assay [1], in assay [2] (jurkat), in assay [3] (cho-k1), in assay [4] (hek293) and in assay [5] (cho-k1) was “Not Active” each time.

Turning to `O=NN(CCCl)C(=O)NC1CCCCC1` [LOMUSTINE], the IC50 entry in assay [1], in assay [2] (jurkat), in assay [3] (cho-k1), in assay [4] (hek293) and in assay [5] (cho-k1) was “Not Active” in each case.

Take `CN1CCN(CCCN2c3ccccc3Sc3ccc(Cl)cc32)CC1` [PROCHLORPERAZINE]: the IC50 result in assay [1] was “Not Active”; in assay [2] (read-out: IC50), 54 nM; in assay [4] (hek293), “Not Active”; in assay [5] (read-out: IC50), 220 nM; in assay [6] it was “Not Active”. Also, the Ki turned out to be 23 nM in assay [2] and 158 nM in assay [5].

`CC(C)N1CCN(c2ccc(OCC3COC(Cn4cncn4)(c4ccc(Cl)cc4Cl)O3)cc2)CC1` (centres undefined) [TERCONAZOLE]: the half-inhibitory concentration (IC50) result was “Not Active” in assay [1]; 508 nM in assay [2] (read-out: IC50); “Not Active” in assay [4] (hek293); 4360 nM in assay [5] (read-out: IC50); “Not Active” in assay [6]. In addition, the Ki stood at 214 nM in assay [2] and 3130 nM in assay [5].

For the molecule `Cc1nc2n(c(=O)c1CCN1CCC(c3noc4cc(F)ccc34)CC1)CCCC2` [RISPERIDONE], the half-maximal inhibitory concentration (IC50) entry in assay [1], in assay [3] (cho-k1), in assay [4] (hek293), in assay [5] (cho-k1) and in assay [6] was “Not Active” throughout.

`CCCCc1oc2ccccc2c1C(=O)c1cc(I)c(OCCN(CC)CC)c(I)c1` [AMIODARONE]: the half-maximal inhibitory concentration (IC50) result in assay [1] is “Not Active”; in assay [5] (read-out: IC50), 1500 nM; in assay [6], “Not Active”. Further, the inhibition constant Ki in assay [5] was 1080 nM.

Consider `N[C@@H](Cc1ccc(O)c(O)c1)C(=O)O` [LEVODOPA], for which the concentration for half-maximal inhibition (IC50) result in assay [1], in assay [2] (jurkat), in assay [3] (cho-k1), in assay [4] (hek293) and in assay [5] (cho-k1) was “Not Active” each time.
